Laboratory results as given in patent US11186576B2, “Pyrazolo[1,5-A][1,3,5]triazine and pyrazolo[1,5-A]pyrimidine derivatives as CDK inhibitors” (Aurigene Discovery Technologies Limited, priority 2015, dated 2021).

Target: CDK7/CycH/MNAT1 (Homo sapiens (Human), UniProt P50613)
Assay: Biochemical assay for CDK7 (TR-FRET kinase assay)
Settings: 60 min pre-incubation, 1 mM ATP; for inhibition at 10 µM: read-out: % inhibition @ 10 μM; for IC50: read-out: IC50
How it was run: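 CDK7/CycH/MNAT1 (5 nM) was preincubated with compound for 60 min at room temperature, then reacted for 60 min with 100 nM ULight-MBP and 1 mM ATP in 1% DMSO. Irreversibility was probed with 20, 60 and 180 min preincubations.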

CDK7/CycH/MNAT1, sequence (P50613 whole entry): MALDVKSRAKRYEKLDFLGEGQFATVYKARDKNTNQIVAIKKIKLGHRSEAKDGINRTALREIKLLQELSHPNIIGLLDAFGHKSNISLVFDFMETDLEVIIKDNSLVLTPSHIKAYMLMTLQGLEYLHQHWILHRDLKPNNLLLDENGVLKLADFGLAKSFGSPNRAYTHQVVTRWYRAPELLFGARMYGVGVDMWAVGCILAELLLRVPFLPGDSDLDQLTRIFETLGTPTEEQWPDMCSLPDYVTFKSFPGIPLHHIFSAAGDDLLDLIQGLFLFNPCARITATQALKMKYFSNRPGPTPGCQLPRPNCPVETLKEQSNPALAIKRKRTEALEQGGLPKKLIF
CDK7/CycH/MNAT1, sequence (P51946 whole entry partner): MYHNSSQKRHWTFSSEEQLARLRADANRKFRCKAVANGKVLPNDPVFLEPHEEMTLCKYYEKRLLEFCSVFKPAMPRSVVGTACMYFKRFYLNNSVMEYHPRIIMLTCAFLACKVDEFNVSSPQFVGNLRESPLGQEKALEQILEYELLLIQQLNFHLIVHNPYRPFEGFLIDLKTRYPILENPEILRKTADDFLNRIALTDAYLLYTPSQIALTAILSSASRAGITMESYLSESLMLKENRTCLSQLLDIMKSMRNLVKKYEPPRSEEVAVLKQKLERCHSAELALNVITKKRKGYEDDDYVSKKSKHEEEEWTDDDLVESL
CDK7/CycH/MNAT1, sequence (P51948 whole entry partner): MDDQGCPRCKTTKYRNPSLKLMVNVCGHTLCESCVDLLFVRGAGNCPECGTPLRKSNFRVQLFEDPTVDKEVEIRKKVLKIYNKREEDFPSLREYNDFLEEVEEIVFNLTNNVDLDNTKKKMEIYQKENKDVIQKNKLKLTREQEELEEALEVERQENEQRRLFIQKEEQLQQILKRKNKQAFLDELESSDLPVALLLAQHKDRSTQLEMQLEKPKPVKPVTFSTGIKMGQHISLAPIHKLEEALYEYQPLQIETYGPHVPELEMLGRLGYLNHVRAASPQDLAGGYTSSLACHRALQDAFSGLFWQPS

inhibition at 10 µM (10 μM compound) [%] | IC50 [nM] | % inhibition @ 10 μM (10 μM compound) [%] | SMILES
94 | 300 to 1000 | – | C=CC(=O)NC(C)C(=O)Nc1cccc(CNc2nc(NC3CCOCC3)nc3c(C(C)C)cnn23)c1 (stereo not drawn) [Compound 80, N-(1-((3-(((8-isopropyl-2-((tetrahydro-2H-pyran-4-yl)amino)pyrazolo[1,5-a][1,3,5]triazin-4-yl)amino)methyl)phenyl)amino)-1-oxopropan-2-yl)acrylamide]
98 | < 300 | – | C=CC(=O)N(C)CC(=O)Nc1cccc(CNc2nc(NC3CCOCC3)nc3c(C(C)C)cnn23)c1 [Compound 81, N-(2-((3-(((8-isopropyl-2-((tetrahydro-2H-pyran-4-yl)amino)pyrazolo[1,5-a][1,3,5]triazin-4-yl)amino)methyl)phenyl)amino)-2-oxoethyl)-N-methylacrylamide]
93 | 300 to 1000 | – | C=CC(=O)NC(C)(C)C(=O)Nc1cccc(CNc2nc(NC3CCOCC3)nc3c(C(C)C)cnn23)c1 [Compound 82, N-(1-((3-(((8-isopropyl-2-((tetrahydro-2H-pyran-4-yl)amino)pyrazolo[1,5-a][1,3,5]triazin-4-yl)amino)methyl)phenyl)amino)-2-methyl-1-oxopropan-2-yl)acrylamide]
99 | < 300 | – | C=CC(=O)N1CCC1C(=O)Nc1cccc(Nc2nc(NC3CCOCC3)nc3c(C(C)C)cnn23)c1 (stereo not drawn) [Compound 86, 1-acryloyl-N-(3-((8-isopropyl-2-((tetrahydro-2H-pyran-4-yl)amino)pyrazolo[1,5-a][1,3,5]triazin-4-yl)amino)phenyl)azetidine-2-carboxamide]
38 | – | – | C=CC(=O)N1CCCC(C(=O)Nc2cccc(CNc3nc(OC4CCN(C)CC4)nc4ccnn34)c2)C1 (stereo not drawn) [Compound 89, 1-acryloyl-N-(3-(((2-((1-methylpiperidin-4-yl)oxy)pyrazolo[1,5-a][1,3,5]triazin-4-yl)amino)methyl)phenyl)piperidine-3-carboxamide]

Further lines, the compound ahead of its results:

SMILES | inhibition at 10 µM (10 μM compound) [%] | IC50 [nM] | % inhibition @ 10 μM (10 μM compound) [%]
C=CC(=O)NCC(=O)Nc1cccc(CNc2nc(NC3CCOCC3)nc3c(C(C)C)cnn23)c1 [Compound 79, N-(2-((3-(((8-isopropyl-2-((tetrahydro-2H-pyran-4-yl)amino)pyrazolo[1,5-a][1,3,5]triazin-4-yl)amino)methyl)phenyl)amino)-2-oxoethyl)acrylamide] | 96 | < 300 | –
C=CC(=O)N(C)C1(C(=O)Nc2cccc(CNc3nc(NC4CCOCC4)nc4c(C(C)C)cnn34)c2)CC1 [Compound 84, N-(3-(((8-isopropyl-2-((tetrahydro-2H-pyran-4-yl)amino)pyrazolo[1,5-a][1,3,5]triazin-4-yl)amino)methyl)phenyl)-1-(N-methylacrylamido)cyclopropane-1-carboxamide] | 97 | < 300 | –
C=CC(=O)N[C@H]1CC[C@@H](C(=O)Nc2cccc(Nc3nc(NC4CCOCC4)nc4c(C(C)C)cnn34)c2)CC1 [Compound 87, (1,4-cis)-4-acrylamido-N-(3-((8-isopropyl-2-((tetrahydro-2H-pyran-4-yl)amino)pyrazolo[1,5-a][1,3,5]triazin-4-yl)amino)phenyl)cyclohexane-1-carboxamide] | – | – | 32
C=CC(=O)N[C@H]1CC[C@@H](C(=O)Nc2cccc(CNc3nc(OC4CCOC4)nc4c(C(C)C)cnn34)c2)CC1 (stereo partly drawn) [Compound 100, (1,4-cis)-4-acrylamido-N-(3-(((8-isopropyl-2-((tetrahydrofuran-3-yl)oxy)pyrazolo[1,5-a][1,3,5]triazin-4-yl)amino)methyl)phenyl)cyclohexane-1-carboxamide] | 82 | 300 to 1000 | –
C=CC(=O)N1CCC(C(=O)Nc2cccc(CNc3nc(OCC(C)C)nc4c(C(C)C)cnn34)c2)C1 (stereo not drawn) [Compound 102, 1-acryloyl-N-(3-(((2-isobutoxy-8-isopropylpyrazolo[1,5-a][1,3,5]triazin-4-yl)amino)methyl)phenyl)pyrrolidine-3-carboxamide] | 82 | 300 to 1000 | –
